Measurements reported in patent US20220133957A1, “Sclerostin Inhibitors That Promote Bone Morphogenetic Protein Expression” (Emory University, priority 2019, published 2022).

Tests used:
[1] = test system: AXIN2, Wnt1 and SOST mRNA; assay: BMP-2-induced marker gene expression in Wnt pathway (mRNA levels) in MC3T3 cells; format: cell-based; conditions: 10 uM compound, BMP-2 35 ng/ml, MC3T3 cells treated for 48 hrs
Sprague-Dawley rats = assay: in vivo subcutaneous ectopic mineralization model (collagen sponge implant); set-up: species or system rat; conditions: 4 weeks; for dose-response of ectopic mineralization: 10, 25, 50, 75 and 100 mM on collagen sponge; for de novo ectopic mineralization: standalone agent on plain collagen sponge, 0-100 mM, subcutaneous on chest
Experimental: Compound was delivered in 100 uL at indicated concentration for each collagen disc in DMSO solvent before subcutaneous implantation.
Sclerostin inhibitors were tested in a challenging in vivo subcutaneous ectopic mineralization model. Other than the osteoinductive BMPs, few if any proteins or small molecules are capable of inducing de novo ectopic mineralization in this rat model. Sclerostin inhibitors were loaded individually as standalone agents onto a plain collagen sponge (DSM) at 0, 10, 25, 50, 75, and 100 mM and then surgically implanted subcutaneously on the chest of 6-week-old male Sprague-Dawley rats for 4 weeks. A positive control of 10 μg of recombinant BMP-2 was also tested.

[2] = test system: rabbit posterolateral spine fusion; assay: rabbit model of posterolateral lumbar arthrodesis (spinal fusion); format: in vivo; conditions: for spinal fusion rates compared to controls: 300 mM; for spinal fusion rates compared to controls / spines successfully fused: 6 weeks; for spines successfully fused: 500 mM as standalone drug on plain collagen sponge without ICBG; for posterolateral spine fusion rate: 500 mM in combination with autologous iliac crest bone graft (ICBG), 6 weeks after arthrodesis
Experimental: Coronal μCT reconstructions of rabbit spines 6 weeks following posterolateral spine arthrodesis are shown.
C07 and VA1 were assessed for their ability to enhance spinal fusion rates in vivo using a validated rabbit model of posterolateral lumbar arthrodesis. Both were tested as standalone osteoinductive drugs, as well as in combination with autologous ICBG, using two separate doses (300 and 500 mM). All rabbits were euthanized six weeks following arthrodesis surgery and the spine fusion masses were assessed by both plain radiography and μCT. Successful fusion, defined as continuous bridging bone between the TPs, was assessed by two spine surgeons.

[3] = biological target: T1, sclerostin and LRP5 interaction (Homo sapiens, UniProt Q9BQB4); assay: in vitro binding assay with purified recombinant sclerostin and LRP5 proteins (125-Iodine-labeled sclerostin, biotin-labeled LRP5 pull-down); conditions: 0.1 ug biotin-labeled LRP5, 20,000 cpm 125-Iodine-labeled sclerostin, 30 min at room temperature
T1 sequence (Q9BQB4 24-213): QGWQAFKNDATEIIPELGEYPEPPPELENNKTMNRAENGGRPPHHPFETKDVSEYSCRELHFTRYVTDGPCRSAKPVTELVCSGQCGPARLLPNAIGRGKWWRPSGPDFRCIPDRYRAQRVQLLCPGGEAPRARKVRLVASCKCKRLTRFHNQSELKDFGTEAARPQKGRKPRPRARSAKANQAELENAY
Experimental: (§1) To ensure that sclerostin was in fact being expressed in cell lines, we tested C2C12, MSC and MC3T3 cell lines. Western blots were performed using anti-sclerostin mAbs both with and without BMP-2 treatment. […] Sclerostin and LRP5 was labeled with 125-Iodine and biotin, respectively. Constant amounts of biotin-labeled LRP5 (0.1 ug) and 125-Iodine-labeled sclerostin (20,000 cpm) were incubated with or without varying concentrations of unlabeled-sclerostin+/−various concentrations of compounds for 30 min at room temperature in a 100 uL assay buffer. Biotin-labeled LRP5 was pulled down with a 20 uL slurry of neutravidin-agarose beads. The counts associated with pellets were counted in a Beckman 4000 Gamma counter. Unlabeled sclerostin competed off about 90% of labeled-sclerostin.

[4] = biological target: purified recombinant LRP5; assay: radioligand competition pull-down: 125I-sclerostin and biotin-LRP5, neutravidin-agarose beads, gamma counting; competitor unlabeled sclerostin
Sclerostin protein = assay: Western blots using anti-sclerostin mAbs with and without BMP-2 treatment; format: cell-based; conditions: C2C12, MSC and MC3T3 cell lines
Experimental: as §1

N#Cc1ccc(NCCNc2ncccn2)nc1 [Compound C07, 6-((2-(pyrimidin-2-ylamino)ethyl)amino)nicotinonitrile]
BMP-induced mRNA levels of AXIN2, Wnt1 and SOST compared to BMP-2 alone control [1]: elevation
dose-response of ectopic mineralization (Sprague-Dawley rats): clearer dose-response
de novo ectopic mineralization (Sprague-Dawley rats): significant de novo ectopic mineralization
spinal fusion rates compared to controls [2]: Neither VA1 nor C07 at 300 mM showed any increase
spines successfully fused [2]: 33%
posterolateral spine fusion rate [2]: 85%

CCCC(CCC)C(=O)O [VA1, valproic acid]
BMP-induced mRNA levels of AXIN2, Wnt1 and SOST compared to BMP-2 alone control [1]: elevation
dose-response of ectopic mineralization (Sprague-Dawley rats): lack of a clear dose-response
de novo ectopic mineralization (Sprague-Dawley rats): significant de novo ectopic mineralization
spinal fusion rates compared to controls [2]: Neither VA1 nor C07 at 300 mM showed any increase
spines successfully fused [2]: 17%
posterolateral spine fusion rate [2]: 80%

Unlabeled sclerostin: purified recombinant sclerostin protein, unlabeled competitor in the LRP5 binding assay
labeled-sclerostin competed off [3]: about 90%

purified recombinant sclerostin (ligand)
percent of labeled sclerostin competed off [4]: 90%

B1: BMP2: bone morphogenetic protein 2, growth factor used to treat cells (protein, listed as Homo sapiens)
chain: MVAGTRCLLALLLPQVLLGGAAGLVPELGRRKFAAASSGRPSSQPSDEVLSEFELRLLSMFGLKQRPTPSRDAVVPPYMLDLYRRHSGQPGSPAPDHRLERAASRANTVRSFHHEESLEELPETSGKTTRRFFFNLSSIPTEEFITSAELQVFREQMQDALGNNSSFHHRINIYEIIKPATANSKFPVTRLLDTRLVNQNASRWESFDVTPAVMRWTAQGHANHGFVVEVAHLEEKQGVSKRHVRISRSLHQDEHSWSQIRPLLVTFGHDGKGHPLHKREKRQAKHKQRKRLKSSCKRHPLYVDFSDVGWNDWIVAPPGYHAFYCHGECPFPLADHLNSTNHAIVQTLVNSVNSKIPKACCVPTELSAISMLYLDENEKVVLKNYQDMVVEGCGCR
Sclerostin protein levels (Sclerostin protein): increased protein levels
